The record followed here is PMC5862592, “CDK8/19 inhibition induces premature G1/S transition and ATR-dependent cell death in prostate cancer cells” (Oncotarget, 2018).

What all share (test): biochemical
Parameters in all cases: KINOMEscan active site-directed competition binding assay (DiscoveRx), 456 kinases, per cent of control at 300 nM
Holding throughout (settings): read-out: Percent of Control (%)

The target of one test is WEE1 (Homo sapiens, UniProt P30291). The essentials:
(§1)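 Kinase panel (456 enzymes) profiled by competitive displacement at the active site; compounds run at 300 nmol/L.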

Another test has as its target CSF1R (Homo sapiens, UniProt P07333). In a few lines: as §1
Test [1] concerns the target EGFR(L747-E749del, A750P) (Homo sapiens, UniProt P00533, A750P/DEL747-749). In a few lines:
as §1

The next test deals with T1, JNK1 (Homo sapiens, UniProt P45983).
T1 construct: gene MAPK8
The essentials: as §1

A further test deals with STK33 (Homo sapiens, UniProt Q9BYT3). In a few lines:
as §1

The target in the next test is PIM1 (Homo sapiens, UniProt P11309). The essentials: as §1
Sequence of PIM1 (P11309 whole entry): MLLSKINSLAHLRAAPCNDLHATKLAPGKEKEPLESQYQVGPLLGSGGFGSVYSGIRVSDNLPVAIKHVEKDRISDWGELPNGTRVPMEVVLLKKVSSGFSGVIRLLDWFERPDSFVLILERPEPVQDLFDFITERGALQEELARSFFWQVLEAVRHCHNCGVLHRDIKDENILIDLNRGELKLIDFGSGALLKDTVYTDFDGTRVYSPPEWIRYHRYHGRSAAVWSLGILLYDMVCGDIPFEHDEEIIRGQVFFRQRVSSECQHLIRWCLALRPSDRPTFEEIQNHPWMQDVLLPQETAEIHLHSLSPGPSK
The target in the next test is WNK3 (Homo sapiens, UniProt Q9BYP7). In a few lines:
as §1

The target of a further test is T2, MST1 (Homo sapiens, UniProt Q13043).
T2 construct: gene STK4
T2 sequence (Q13043 whole entry): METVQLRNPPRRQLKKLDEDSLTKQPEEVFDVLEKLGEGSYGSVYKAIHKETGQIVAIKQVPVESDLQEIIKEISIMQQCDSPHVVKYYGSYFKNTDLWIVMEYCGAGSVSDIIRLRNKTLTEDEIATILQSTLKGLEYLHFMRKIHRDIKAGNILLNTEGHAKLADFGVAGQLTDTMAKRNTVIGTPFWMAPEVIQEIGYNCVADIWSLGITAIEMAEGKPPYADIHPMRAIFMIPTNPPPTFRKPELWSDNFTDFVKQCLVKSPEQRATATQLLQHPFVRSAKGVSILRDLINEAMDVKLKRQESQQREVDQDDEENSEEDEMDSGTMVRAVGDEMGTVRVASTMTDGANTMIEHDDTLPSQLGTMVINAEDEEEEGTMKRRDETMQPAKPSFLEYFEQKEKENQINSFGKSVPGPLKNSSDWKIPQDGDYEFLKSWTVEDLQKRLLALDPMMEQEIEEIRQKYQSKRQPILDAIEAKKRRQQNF
In a few lines: as §1

The target of another test is ERBB2 (Homo sapiens, UniProt P04626). In a few lines: as §1
Sequence of ERBB2 (P04626 whole entry): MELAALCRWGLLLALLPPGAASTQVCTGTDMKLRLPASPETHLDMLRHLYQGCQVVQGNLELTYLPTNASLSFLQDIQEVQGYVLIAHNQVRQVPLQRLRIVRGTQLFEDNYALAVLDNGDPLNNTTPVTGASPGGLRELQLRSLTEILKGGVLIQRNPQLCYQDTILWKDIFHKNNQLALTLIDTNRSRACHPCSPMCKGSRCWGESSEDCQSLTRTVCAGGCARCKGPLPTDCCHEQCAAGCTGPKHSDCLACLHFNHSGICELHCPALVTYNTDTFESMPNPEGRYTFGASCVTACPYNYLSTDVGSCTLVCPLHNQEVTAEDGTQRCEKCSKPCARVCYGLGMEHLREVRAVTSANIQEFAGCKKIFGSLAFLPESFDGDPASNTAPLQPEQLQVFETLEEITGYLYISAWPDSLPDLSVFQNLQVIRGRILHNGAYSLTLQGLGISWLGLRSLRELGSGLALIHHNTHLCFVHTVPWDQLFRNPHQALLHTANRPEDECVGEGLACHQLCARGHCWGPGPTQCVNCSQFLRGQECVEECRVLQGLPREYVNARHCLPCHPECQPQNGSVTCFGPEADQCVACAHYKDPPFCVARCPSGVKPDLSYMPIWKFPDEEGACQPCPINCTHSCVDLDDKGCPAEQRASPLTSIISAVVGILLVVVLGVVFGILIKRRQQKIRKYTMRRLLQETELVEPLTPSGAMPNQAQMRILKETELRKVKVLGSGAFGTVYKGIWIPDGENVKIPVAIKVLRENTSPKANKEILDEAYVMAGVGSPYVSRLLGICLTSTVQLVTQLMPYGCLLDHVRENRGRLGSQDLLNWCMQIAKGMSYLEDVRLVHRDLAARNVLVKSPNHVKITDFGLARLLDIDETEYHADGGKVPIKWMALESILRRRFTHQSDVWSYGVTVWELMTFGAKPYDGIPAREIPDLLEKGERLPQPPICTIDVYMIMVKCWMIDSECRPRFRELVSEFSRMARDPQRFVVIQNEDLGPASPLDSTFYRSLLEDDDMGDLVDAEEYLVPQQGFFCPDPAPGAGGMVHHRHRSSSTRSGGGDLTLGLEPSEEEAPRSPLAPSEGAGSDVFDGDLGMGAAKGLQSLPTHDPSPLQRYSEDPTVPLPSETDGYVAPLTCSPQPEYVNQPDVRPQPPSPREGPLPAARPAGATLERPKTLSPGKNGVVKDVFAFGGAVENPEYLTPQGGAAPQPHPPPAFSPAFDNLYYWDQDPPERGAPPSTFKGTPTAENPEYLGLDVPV
The target of a further test is T3, CDK4-cyclinD1 (Homo sapiens, UniProt P11802).
T3 construct: cyclinD1
The essentials:
as §1

Another test addresses HIPK2 (Homo sapiens, UniProt Q9H2X6). The essentials:
as §1

The target of the next test is T4, MRCKB (Homo sapiens, UniProt Q9Y5S2).
T4 construct: gene CDC42BPB
T4 sequence (Q9Y5S2 whole entry): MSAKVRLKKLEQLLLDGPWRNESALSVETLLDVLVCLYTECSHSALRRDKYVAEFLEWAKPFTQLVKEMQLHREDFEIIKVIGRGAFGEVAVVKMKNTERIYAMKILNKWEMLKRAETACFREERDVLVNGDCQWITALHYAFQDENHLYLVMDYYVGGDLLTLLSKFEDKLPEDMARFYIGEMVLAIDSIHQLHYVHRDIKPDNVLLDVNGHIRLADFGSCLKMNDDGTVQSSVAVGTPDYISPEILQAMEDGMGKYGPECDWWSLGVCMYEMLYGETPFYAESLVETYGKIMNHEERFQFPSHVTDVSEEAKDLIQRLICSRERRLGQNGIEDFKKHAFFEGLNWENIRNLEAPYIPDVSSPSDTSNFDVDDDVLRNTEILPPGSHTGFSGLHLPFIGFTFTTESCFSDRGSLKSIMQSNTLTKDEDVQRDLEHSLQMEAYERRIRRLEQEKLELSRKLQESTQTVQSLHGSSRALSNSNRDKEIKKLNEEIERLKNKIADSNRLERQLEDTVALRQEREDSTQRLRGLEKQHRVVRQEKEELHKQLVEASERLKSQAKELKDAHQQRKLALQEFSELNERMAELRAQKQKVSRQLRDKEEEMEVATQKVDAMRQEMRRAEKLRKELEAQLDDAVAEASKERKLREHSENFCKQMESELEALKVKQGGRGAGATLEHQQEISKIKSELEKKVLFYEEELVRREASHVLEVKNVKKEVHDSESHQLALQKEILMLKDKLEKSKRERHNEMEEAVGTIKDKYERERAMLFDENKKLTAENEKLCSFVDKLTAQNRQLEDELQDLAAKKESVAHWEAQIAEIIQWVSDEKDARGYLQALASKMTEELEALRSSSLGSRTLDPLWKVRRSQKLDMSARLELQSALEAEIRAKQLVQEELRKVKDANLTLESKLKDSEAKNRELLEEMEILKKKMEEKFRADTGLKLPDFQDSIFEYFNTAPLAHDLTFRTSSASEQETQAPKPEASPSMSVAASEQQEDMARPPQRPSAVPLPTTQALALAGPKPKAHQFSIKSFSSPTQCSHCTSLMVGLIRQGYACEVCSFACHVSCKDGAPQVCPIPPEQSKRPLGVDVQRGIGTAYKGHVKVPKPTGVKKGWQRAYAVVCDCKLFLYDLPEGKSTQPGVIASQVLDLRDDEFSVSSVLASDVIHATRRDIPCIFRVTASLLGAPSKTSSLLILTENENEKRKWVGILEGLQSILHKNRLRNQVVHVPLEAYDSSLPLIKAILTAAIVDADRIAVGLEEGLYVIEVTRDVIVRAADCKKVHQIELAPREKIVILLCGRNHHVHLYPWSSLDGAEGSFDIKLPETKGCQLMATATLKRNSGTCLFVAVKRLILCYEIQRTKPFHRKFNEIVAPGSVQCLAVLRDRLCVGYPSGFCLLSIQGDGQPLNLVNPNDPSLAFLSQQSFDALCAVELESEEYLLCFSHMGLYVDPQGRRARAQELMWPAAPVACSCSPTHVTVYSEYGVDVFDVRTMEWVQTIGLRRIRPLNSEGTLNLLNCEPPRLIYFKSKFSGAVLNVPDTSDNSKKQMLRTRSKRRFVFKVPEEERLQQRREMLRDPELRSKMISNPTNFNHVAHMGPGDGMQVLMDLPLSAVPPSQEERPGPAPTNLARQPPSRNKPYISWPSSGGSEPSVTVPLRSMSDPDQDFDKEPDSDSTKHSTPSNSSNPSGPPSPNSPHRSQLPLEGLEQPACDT
The essentials: as §1

The target of a further test is EPHB4 (Homo sapiens, UniProt P54760). The essentials:
as §1

For the next test, the target named is T5, ERK4 (Homo sapiens, UniProt P31152).
T5 construct: gene MAPK4
T5 sequence (P31152 whole entry): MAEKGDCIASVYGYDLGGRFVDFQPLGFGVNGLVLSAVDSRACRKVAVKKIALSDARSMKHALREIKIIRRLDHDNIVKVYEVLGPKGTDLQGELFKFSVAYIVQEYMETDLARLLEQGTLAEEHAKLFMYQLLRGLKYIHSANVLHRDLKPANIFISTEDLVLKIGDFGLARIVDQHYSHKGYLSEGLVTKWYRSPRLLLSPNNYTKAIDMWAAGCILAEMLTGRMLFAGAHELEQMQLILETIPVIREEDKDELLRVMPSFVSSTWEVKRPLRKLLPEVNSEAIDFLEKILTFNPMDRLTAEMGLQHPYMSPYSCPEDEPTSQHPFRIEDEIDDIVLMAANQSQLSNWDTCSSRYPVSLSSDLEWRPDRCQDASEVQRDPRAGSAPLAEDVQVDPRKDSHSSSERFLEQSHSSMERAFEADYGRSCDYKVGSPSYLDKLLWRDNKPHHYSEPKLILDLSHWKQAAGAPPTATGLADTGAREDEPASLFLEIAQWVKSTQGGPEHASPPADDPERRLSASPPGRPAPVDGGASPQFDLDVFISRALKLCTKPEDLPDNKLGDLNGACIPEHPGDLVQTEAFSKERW
The essentials:
as §1

For test [2], the target named is T6, JAK1(JH2domain-pseudokinase) (Homo sapiens, UniProt P23458).
T6 construct: JH2domain-pseudokinase
In a few lines:
as §1

The next test has as its target FGFR1 (Homo sapiens, UniProt P11362). The essentials:
as §1

Another test deals with AKT1 (Homo sapiens, UniProt P31749). In a few lines:
as §1

In test [3] the target is T7, ABL1(Q252H)-nonphosphorylated (Homo sapiens, UniProt P00519, Q252H).
T7 construct: nonphosphorylated
In a few lines: as §1

The target in another test is CSNK1A1L (Homo sapiens, UniProt Q8N752). In a few lines: as §1
The next test has as its target ITK (Homo sapiens, UniProt Q08881). In a few lines:
as §1

For a further test, the target named is MAP3K15 (Homo sapiens, UniProt Q6ZN16). In a few lines:
as §1

The next test addresses TNK2 (Homo sapiens, UniProt Q07912). The essentials:
as §1

Read-outs that look alike come from different tables or passages of the source.

Sequence of AKT1 (P31749 whole entry): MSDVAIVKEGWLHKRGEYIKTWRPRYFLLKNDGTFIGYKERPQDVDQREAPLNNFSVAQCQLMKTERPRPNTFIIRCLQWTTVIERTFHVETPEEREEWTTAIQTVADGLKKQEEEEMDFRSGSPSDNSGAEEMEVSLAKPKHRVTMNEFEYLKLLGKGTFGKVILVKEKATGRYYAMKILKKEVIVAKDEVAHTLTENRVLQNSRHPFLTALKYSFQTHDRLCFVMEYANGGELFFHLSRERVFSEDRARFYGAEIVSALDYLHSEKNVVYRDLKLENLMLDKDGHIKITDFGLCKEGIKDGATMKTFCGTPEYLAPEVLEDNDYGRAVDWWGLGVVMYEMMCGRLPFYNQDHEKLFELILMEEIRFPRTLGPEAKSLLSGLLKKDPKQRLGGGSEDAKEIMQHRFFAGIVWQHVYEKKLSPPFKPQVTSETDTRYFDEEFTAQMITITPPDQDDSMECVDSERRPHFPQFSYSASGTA

As for `O=C(/C=C/c1cnccc1-c1ccc(F)cc1)Nc1ccc(CCc2nnco2)cc1` [T-418, (2E)-3-(4-(4-fluorophenyl)pyridin-3-yl)-N-(4-(2-(1,3,4-oxadiazol-2-yl)ethyl)phenyl)acrylamide], the remaining binding at 0.3 µM on WEE1 (sheet T-418) is 90%; on CSF1R (sheet T-418), 81%; in test [1] (sheet T-418) it was 58%; at JNK1 (sheet T-418), 90%; on STK33 (sheet T-418), 91%; at PIM1 (sheet T-418) it was 75%. For the same molecule, the remaining binding at 0.3 µM was determined as 100% at WNK3 (sheet T-418); 89% on MST1 (sheet T-418); 52% at ERBB2 (sheet T-418); 91% at CDK4-cyclinD1 (sheet T-418); 53% at HIPK2 (sheet T-418); 100% at MRCKB (sheet T-418). The remaining binding at 0.3 µM is 96% at EPHB4 (sheet T-418); 100% at ERK4 (sheet T-418); 100% in test [2] (sheet T-418); 100% on FGFR1 (sheet T-418); 85% on AKT1 (sheet T-418); 83% in test [3] (sheet T-418). Also, the remaining binding at 0.3 µM came out at 92% at CSNK1A1L (sheet T-418), 100% on ITK (sheet T-418), 100% at MAP3K15 (sheet T-418) and 100% at TNK2 (sheet T-418).

Regarding `Cc1ncccc1Oc1sc(C(N)=O)c2c1-c1c(cnn1C)CC2` [T-474, 1-methyl-8-((2-methylpyridin-3-yl)oxy)-4,5-dihydro-1H-thieno[3,4-g]indazole-6-carboxamide], the remaining binding at 0.3 µM at WEE1 worked out at 90%; on CSF1R, 100%; in test [1] it was 68%; on JNK1, 87%; at STK33 it was 86%; at PIM1, 92%. Also, the remaining binding at 0.3 µM at WNK3 stood at 100%; at MST1, 100%; at ERBB2, 47%; at CDK4-cyclinD1, 95%; at HIPK2 it was 42%; at MRCKB it was 100%. Moreover, the remaining binding at 0.3 µM worked out at 100% on EPHB4; 100% at ERK4; 100% in [2]; 95% on FGFR1; 98% on AKT1; 100% in [3]. The remaining binding at 0.3 µM at CSNK1A1L, at ITK, on MAP3K15 and at TNK2 was 100% throughout.
